Among the data in US20240246964A1 (Arbutus Biopharma Corporation, priority 2021, published 2024) are EC50 values, retold here.

This assay concerns the target human PD-L1 (Homo sapiens (Human), UniProt Q9NZQ7). The assay is described as follows: T cell activation luciferase reporter cell culture system (T Cell Activation Assay). Format: cell-based. The note with it: luciferase reporter assay; PD-L1 aAPC/CHO-K1 cells with PD-1 effector Jurkat T cells.

Chain of human PD-L1 (Q9NZQ7 19-290): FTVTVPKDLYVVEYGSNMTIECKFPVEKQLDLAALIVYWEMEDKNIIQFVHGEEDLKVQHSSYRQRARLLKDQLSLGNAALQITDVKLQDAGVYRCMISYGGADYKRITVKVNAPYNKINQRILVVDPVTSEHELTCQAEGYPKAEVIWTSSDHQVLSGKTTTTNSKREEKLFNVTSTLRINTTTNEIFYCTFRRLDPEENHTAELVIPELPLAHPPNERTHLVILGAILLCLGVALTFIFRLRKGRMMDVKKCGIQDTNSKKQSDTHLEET

As usually defined, the EC50 is the midpoint of the concentration-response curve. Low readings indicate greater potency, high ones weaker potency. For `COc1cc(-c2nccc(-c3cccc(-c4ccc(CN5CC6(CNC(=O)C6)C5)c(OC)n4)c3Cl)c2Cl)ccc1CN[C@H]1CC[C@@H](O)CC1` [Example 503, 2-((6-(2-Chloro-3-(3-chloro-2-(4-((((1s,4s)-4-hydroxycyclohexyl)-amino)-methyl)-3-methoxyphenyl)pyridin-4-yl)phenyl)-2-methoxypyridin-3-yl)methyl)-2,6-diazaspiro[3.4]octan-7-one], a half-maximal effect (EC50) was put at 0.0362 µM. Consider `COc1cc(-c2nccc(-c3cccc(-c4ccc(CNCC5(O)CC5)c(OC)n4)c3Cl)c2Cl)ccc1CNCC1(O)CC1` [Example 504, 1-((((6-(2-Chloro-3-(3-chloro-2-(4-((((1-hydroxycyclopropyl)methyl)amino)methyl)-3-methoxyphenyl)pyridin-4-yl)phenyl)-2-methoxypyridin-3-yl)methyl)amino)methyl)cyclopropan-1-ol], for which a half-maximal response (EC50) required 0.0364 µM. This EC50 and that of the compound before are within 1.5-fold of each other.

`COc1cc(-c2nccc(-c3cccc(-c4ccc(CNCC(F)F)c(OC)n4)c3Cl)c2Cl)ccc1CNCC(F)F` [Example 505, N-((6-(2-Chloro-3-(3-chloro-2-(4-(((2,2-difluoroethyl)amino)methyl)-3-methoxyphenyl)pyridin-4-yl)phenyl)-2-methoxypyridin-3-yl)methyl)-2,2-difluoroethan-1-amine] showed an EC50 of at least 10 µM.

`COc1cc(-c2nccc(-c3cccc(-c4ccc(CNC5CCOCC5)c(OC)n4)c3Cl)c2Cl)ccc1CN1CC2(CNC(=O)C2)C1` [Example 506, 2-(4-(3-Chloro-4-(2-chloro-3-(6-methoxy-5-(((tetrahydro-2H-pyran-4-yl)amino)methyl)pyridin-2-yl)phenyl)pyridin-2-yl)-2-methoxybenzyl)-2,6-diazaspiro[3.4]octan-7-one] came in with an EC50 of 0.025 µM. The same measure for `COc1cc(-c2nccc(-c3cccc(-c4ccc(CNC5CCN(C(C)=O)CC5)c(OC)n4)c3Cl)c2Cl)ccc1CN1CCC[C@H](O)C1` [Example 507, (S)-1-(4-(((6-(2-Chloro-3-(3-chloro-2-(4-((3-hydroxypiperidin-1-yl)methyl)-3-methoxyphenyl)pyridin-4-yl)phenyl)-2-methoxypyridin-3-yl)methyl)amino)piperidin-1-yl)ethan-1-one]: 0.0452 µM; for `COc1cc(-c2nccc(-c3cccc(-c4ccc(CNC5CCN(C(C)=O)CC5)c(OC)n4)c3Cl)c2Cl)ccc1CN1CCC(CO)CC1` [Example 508, 1-(4-(((6-(2-Chloro-3-(3-chloro-2-(4-((4-(hydroxymethyl)piperidin-1-yl)methyl)-3-methoxyphenyl)pyridin-4-yl)phenyl)-2-methoxypyridin-3-yl)methyl)amino)piperidin-1-yl)ethan-1-one]: 0.0351 µM; for `COCC(=O)N1CCC(NCc2ccc(-c3cccc(-c4ccnc(-c5ccc(CN6CCC(O)CC6)c(OC)c5)c4Cl)c3Cl)nc2OC)CC1` [Example 510, 1-(4-(((6-(2-Chloro-3-(3-chloro-2-(4-((4-hydroxypiperidin-1-yl)methyl)-3-methoxyphenyl)pyridin-4-yl)phenyl)-2-methoxypyridin-3-yl)methyl)amino)piperidin-1-yl)-2-methoxyethan-1-one]: 0.027 µM. `COc1cc(-c2nccc(-c3cccc(-c4ccc(CN5CC6(C5)CN(C(C)=O)C6)c(OC)n4)c3Cl)c2Cl)ccc1CNC1CCOCC1` [Example 511, 1-(6-((6-(2-Chloro-3-(3-chloro-2-(3-methoxy-4-(((tetrahydro-2H-pyran-4-yl)amino)methyl)phenyl)pyridin-4-yl)phenyl)-2-methoxypyridin-3-yl)methyl)-2,6-diazaspiro[3.3]heptan-2-yl)ethan-1-one] displayed an EC50 of 0.0207 µM. The same measure for `COc1cc(-c2nccc(-c3cccc(-c4ccc(CNC5CCN(C(C)=O)CC5)c(OC)n4)c3Cl)c2Cl)ccc1CNCC1(O)CC1` [Example 512, 1-(4-(((6-(2-Chloro-3-(3-chloro-2-(4-((((1-hydroxycyclopropyl)methyl)amino)methyl)-3-methoxyphenyl)pyridin-4-yl)phenyl)-2-methoxypyridin-3-yl)methyl)amino)piperidin-1-yl)ethan-1-one]: 0.0328 µM; for `COc1cc(-c2nccc(-c3cccc(-c4ccc(CNC(C)C)c(OC)n4)c3Cl)c2Cl)ccc1CNC(C)C` [Example 514, N-((6-(2-Chloro-3-(3-chloro-2-(4-((isopropylamino)methyl)-3-methoxyphenyl)pyridin-4-yl)phenyl)-2-methoxypyridin-3-yl)methyl)propan-2-amine]: 0.0945 µM; for `COc1cc(-c2nccc(-c3cccc(-c4ccc(CN[C@H]5CC[C@H](O)CC5)c(OC)n4)c3Cl)c2Cl)ccc1CN1CC2(CNC(=O)C2)C1` [Example 515, 2-(4-(3-Chloro-4-(2-chloro-3-(5-((((1r,4r)-4-hydroxycyclohexyl)-amino)methyl)-6-methoxypyridin-2-yl)phenyl)pyridin-2-yl)-2-methoxybenzyl)-2,6-diazaspiro[3.4]octan-7-one]: 0.0178 µM. Compound `COc1cc(-c2nccc(-c3cccc(-c4ccc(CN[C@H]5CC[C@@H](O)CC5)c(OC)n4)c3Cl)c2Cl)ccc1CN1CC2(CNC(=O)C2)C1` [Example 516, 2-(4-(3-Chloro-4-(2-chloro-3-(5-((((1s,4s)-4-hydroxycyclohexyl)amino)-methyl)-6-methoxypyridin-2-yl)phenyl)pyridin-2-yl)-2-methoxybenzyl)-2,6-diazaspiro[3.4]octan-7-one] gave an EC50 of 0.0504 µM. In turn, `COc1cc(-c2nccc(-c3cccc(-c4ccc(CN5CC6(CNC6)C5)c(OC)n4)c3Cl)c2Cl)ccc1CN1CC2(CNC(=O)C2)C1` [Example 520, 2-(4-(4-(3-(5-((2,6-Diazaspiro[3.3]heptan-2-yl)methyl)-6-methoxypyridin-2-yl)-2-chlorophenyl)-3-chloropyridin-2-yl)-2-methoxybenzyl)-2,6-diazaspiro[3.4]octan-7-one] had an EC50 of 0.0666 µM. The EC50 values of the last two compounds are within 1.5-fold of each other. As for `COc1cc(-c2nccc(-c3cccc(-c4ccc(CN5CC6(CC(O)C6)C5)c(OC)n4)c3Cl)c2Cl)ccc1CN1CC2(CNC(=O)C2)C1` [Example 521, 2-(4-(3-Chloro-4-(2-chloro-3-(5-((6-hydroxy-2-azaspiro[3.3]heptan-2-yl)methyl)-6-methoxypyridin-2-yl)phenyl)pyridin-2-yl)-2-methoxybenzyl)-2,6-diazaspiro[3.4]octan-7-one], the concentration for a half-maximal effect (EC50) worked out at 0.00863 µM. This EC50 lies about 7.7-fold lower than the previous one. The same measure for `COc1cc(-c2ncnc(-c3cccc(-c4ccc(CNC[C@@H]5CCC(=O)N5)c(OC)n4)c3Cl)c2C)ccc1CNC[C@@H]1CCC(=O)N1` [Example 523, (S)-5-((((6-(2-Chloro-3-(6-(3-methoxy-4-(((((S)-5-oxopyrrolidin-2-yl)methyl)amino)methyl)phenyl)-5-methylpyrimidin-4-yl)phenyl)-2-methoxypyridin-3-yl)methyl)amino)methyl)pyrrolidin-2-one]: 0.0924 µM; for `COc1cc(-c2nccc(-c3cccc(-c4ccc(CNC5CCCCC5)c(OC)n4)c3Cl)c2Cl)ccc1CNC1CCCCC1` [Example 524, N-((6-(2-Chloro-3-(3-chloro-2-(4-((cyclohexylamino)methyl)-3-methoxyphenyl)pyridin-4-yl)phenyl)-2-methoxypyridin-3-yl)methyl)cyclohexanamine]: 0.347 µM.
